From paper PMC8000227 (Viruses, 2021)
Where “and” joins values, the source holds several entries; their conditions need not be identical. Equal values may be shown once.

Tests used:
[1] = Cytotoxicity assay (XTT) in TZM-GFP cells; assay type: cell-based; details: human, mean ± SD, read-out: CC50 (concentration of compound causing 50% cell death)
[2] = Metabolites observed in the microsomal stability assay; assay type: in vitro ADME; details: observed in liver microsomal stability assay
[3] = Microsomal stability, mouse liver microsomes; assay type: in vitro ADME; details: pH 7.4, 1 µM compound, 0.5 mg/mL microsomal protein, NADPH, 37 °C, read-out: Phase I metabolic stability t1/2, MLMs
[4] = Microsomal stability, human liver microsomes; assay type: in vitro ADME; details: 0.5 mg/mL microsomal protein, NADPH, 37 °C; for half-life at 1 µM: human, liver microsomes, pH 7.4, 1 µM compound, read-out: Phase I metabolic stability t1/2, HLMs
[5] = molecular target: covalently-crosslinked hexameric CA A14C/E45C/W184A/M185A (CA121) (Human immunodeficiency virus type 1 group M subtype B, UniProt P12493, A146C/E177C/M317A/W316A); assay: Thermal shift assay (TSA) on CA hexamer stability; assay type: binding, HIV-1; details: 20 µM compound, 7.5 µM CA121
HIV-1NL4-3 = assay: microbe, parasite or virus in culture; assay type: cell-based; details: TZM-GFP cells, HIV-1NL4-3 MOI 0.1, 48 h, mean ± SD; for EC50: Human immunodeficiency virus 1, read-out: EC50 (concentration of compound inhibiting HIV-1 replication by 50%)
[6] = cited from earlier work
[7] = cited from earlier work; remark: listed apart in the source

COc1ccc2[nH]cc(CC(=O)N[C@@H](Cc3ccccc3)c3ncccc3-c3ccc(Cl)cc3)c2c1 [Compound 14]
CC50 at 72 h [1]: 39 ± 0.2 µM | Metabolite (s) [2]: 15 | half-life at 1 µM [3]: 0.9 ± 0.004 min | half-life at 1 µM [4]: 1.7 ± 0.02 min | TSA ΔTm (change of CA crosslinked hexamer melting temperature vs DMSO) [5]: 7.8 ± 0.3 °C | EC50 (HIV-1NL4-3): 1.4 ± 0.7 µM

O=C(Cn1cccn1)N[C@@H](Cc1ccccc1)c1ncccc1-c1ccccc1 [Compound 11, (S)-N-(2-phenyl-1-(3-phenylpyridin-2-yl)ethyl)-2-(1H-pyrazol-1-yl)acetamide]
CC50 at 72 h [1]: > 50 µM | EC50 (HIV-1NL4-3): 5.1 ± 0.7 µM | EC50 (concentration of compound inhibiting HIV-1 replication by 50%) (HIV-1NL4-3): low micromolar

CCn1cc(CC(=O)N[C@@H](Cc2ccccc2)c2ncccc2-c2ccc(Cl)cc2)c2cc(OC)ccc21 [Compound 17]
CC50 at 72 h [1]: 48 ± 6 µM | Metabolite (s) [2]: 15 and 14 | half-life at 1 µM [3]: 1.3 ± 0.005 min | half-life at 1 µM [4]: 1.3 ± 0.01 min | TSA ΔTm (change of CA crosslinked hexamer melting temperature vs DMSO) [5]: 5.9 ± 0.2 °C | EC50 (HIV-1NL4-3): 3.6 ± 0.2 µM

COc1ccc2[nH]cc(CC(=O)N[C@@H](Cc3ccccc3)c3nccn3-c3ccc(I)cc3)c2c1 [Compound 25]
CC50 at 72 h [1]: > 100 µM | TSA ΔTm (change of CA crosslinked hexamer melting temperature vs DMSO) [5]: 2.7 ± 0.1 °C | EC50 (HIV-1NL4-3): 3.3 ± 0.2 µM

Cc1[nH]c2ccccc2c1CC(=O)N[C@@H](Cc1ccccc1)C(=O)N1CCc2ccccc21 [Compound 1]
CC50 at 72 h [1]: > 100 µM | TSA ΔTm (change of CA crosslinked hexamer melting temperature vs DMSO) [5]: −0.5 °C | EC50 (HIV-1NL4-3): > 20 µM

O=C(Cc1c[nH]c2ccccc12)N[C@@H](Cc1ccccc1)c1ncccc1-c1ccc(Cl)cc1 [Compound 13]
CC50 at 72 h [1]: 22 ± 2 µM | TSA ΔTm (change of CA crosslinked hexamer melting temperature vs DMSO) [5]: 7.7 ± 0.2 °C | EC50 (HIV-1NL4-3): 0.79 ± 0.25 µM

Cc1[nH]c2ccccc2c1CC(=O)N[C@H](Cc1ccccc1)c1ncccc1-c1ccccc1 [Compound 4]
CC50 at 72 h [1]: < 50 µM | EC50 (HIV-1NL4-3): > 20 µM | EC50 (concentration of compound inhibiting HIV-1 replication by 50%) (HIV-1NL4-3): completely inactive

Cc1[nH]c2ccccc2c1CC(=O)N[C@@H](Cc1ccccc1)c1ncccc1-c1cccc(C#N)c1 [Compound 12]
CC50 at 72 h [1]: > 50 µM | TSA ΔTm (change of CA crosslinked hexamer melting temperature vs DMSO) [5]: −0.2 ± 0.07 °C | EC50 (HIV-1NL4-3): > 20 µM

COc1ccc2[nH]cc(CC(=O)N[C@@H](Cc3ccccc3)c3nccn3-c3ccc(Cl)cc3)c2c1 [Compound 23]
CC50 at 72 h [1]: 93 ± 2 µM | TSA ΔTm (change of CA crosslinked hexamer melting temperature vs DMSO) [5]: 4.0 ± 0.3 °C | EC50 (HIV-1NL4-3): 3.3 ± 0.03 µM

O=C(Cn1ncc2ccccc21)N[C@H](Cc1ccccc1)c1ncccc1-c1ccccc1 [Compound 5]
CC50 at 72 h [1]: < 50 µM | TSA ΔTm (change of CA crosslinked hexamer melting temperature vs DMSO) [5]: 0.1 ± 0.07 °C | EC50 (HIV-1NL4-3): > 20 µM

Cc1[nH]c2ccccc2c1CC(=O)N[C@@H](Cc1ccccc1)c1nccn1-c1ccc(C#N)cc1 [Compound 21]
CC50 at 72 h [1]: > 50 µM | TSA ΔTm (change of CA crosslinked hexamer melting temperature vs DMSO) [5]: 2.2 ± 0.0 °C | EC50 (HIV-1NL4-3): 6.6 ± 0.4 µM

O=C(Cn1ncc2ccccc21)N[C@@H](Cc1ccccc1)c1ncccc1-c1ccccc1 [Compound 10, (S)-2-(1H-indazol-1-yl)-N-(2-phenyl-1-(3-phenylpyridin-2-yl)ethyl)acetamide]
CC50 at 72 h [1]: < 50 µM | EC50 (HIV-1NL4-3): 8.8 ± 0.4 µM | EC50 (concentration of compound inhibiting HIV-1 replication by 50%) (HIV-1NL4-3): low micromolar

Cc1[nH]c2ccccc2c1CC(=O)N[C@@H](Cc1ccccc1)c1nccn1-c1ccccc1 [Compound 20]
CC50 at 72 h [1]: > 50 µM | half-life at 1 µM [3]: 0.7 ± 0.01 min | half-life at 1 µM [4]: 0.9 ± 0.004 min | TSA ΔTm (change of CA crosslinked hexamer melting temperature vs DMSO) [5]: 3.9 °C and 3.9 ± 0.4 °C | EC50 (HIV-1NL4-3): 3.7 ± 0.8 µM

O=C(Cn1cccn1)N[C@H](Cc1ccccc1)c1ncccc1-c1cccc2cn[nH]c12 [Compound 8]
CC50 at 72 h [1]: > 50 µM | TSA ΔTm (change of CA crosslinked hexamer melting temperature vs DMSO) [5]: 0.1 ± 0.1 °C | EC50 (HIV-1NL4-3): > 20 µM

COc1ccc2[nH]cc(CC(=O)N[C@@H](Cc3ccccc3)c3ncccc3-c3ccc(Br)cc3)c2c1 [Compound 18]
CC50 at 72 h [1]: 40 ± 4 µM | TSA ΔTm (change of CA crosslinked hexamer melting temperature vs DMSO) [5]: 6.3 ± 0.6 °C | EC50 (HIV-1NL4-3): 2.1 ± 0.8 µM

O=C(Cc1c[nH]c2ccc(O)cc12)N[C@@H](Cc1ccccc1)c1ncccc1-c1ccc(Cl)cc1 [Compound 15]
CC50 at 72 h [1]: 44 ± 1 µM | half-life at 1 µM [3]: 3.1 ± 0.3 min | Phase I metabolic stability t1/2, HLMs ([4]; 1 µM compound): 27.2 ± 0.5 min | half-life at 1 µM [4]: 27 min | TSA ΔTm (change of CA crosslinked hexamer melting temperature vs DMSO) [5]: 8.7 °C and 8.7 ± 0.3 °C | EC50 (HIV-1NL4-3): 0.31 ± 0.07 µM

COc1ccc2[nH]cc(CC(=O)N[C@@H](Cc3ccccc3)c3nccn3-c3ccc(Br)cc3)c2c1 [Compound 24]
CC50 at 72 h [1]: > 100 µM | TSA ΔTm (change of CA crosslinked hexamer melting temperature vs DMSO) [5]: 2.8 ± 0.3 °C | EC50 (HIV-1NL4-3): 3.5 ± 0.3 µM

Cc1[nH]c2ccccc2c1CC(=O)N[C@@H](Cc1ccccc1)c1ncccc1-c1ccccc1 [Compound 9]
CC50 at 72 h [1]: < 50 µM | half-life at 1 µM [3]: 1 ± 0.01 min | half-life at 1 µM [4]: 1.2 ± 0.04 min | TSA ΔTm (change of CA crosslinked hexamer melting temperature vs DMSO) [5]: 4.5 °C and 4.5 ± 0.0 °C | EC50 (HIV-1NL4-3): 2.6 ± 0.4 µM

O=C(Cn1ncc2ccccc21)N[C@H](Cc1ccccc1)c1ncccc1-c1cccc2cn[nH]c12 [Compound 7]
CC50 at 72 h [1]: > 50 µM | TSA ΔTm (change of CA crosslinked hexamer melting temperature vs DMSO) [5]: 0 ± 0 °C | EC50 (HIV-1NL4-3): > 20 µM

O=C(Cc1c[nH]c2ccccc12)N[C@@H](Cc1ccccc1)C(=O)N1CCCc2ccccc21 [Compound 3]
CC50 at 72 h [1]: > 50 µM | TSA ΔTm (change of CA crosslinked hexamer melting temperature vs DMSO) [5]: 1.8 ± 1.2 °C | EC50 (HIV-1NL4-3): > 20 µM

CCn1cc(CC(=O)N[C@@H](Cc2ccccc2)c2ncccc2-c2ccc(Cl)cc2)c2ccccc21 [Compound 16]
CC50 at 72 h [1]: 41 ± 0.1 µM | Metabolite (s) [2]: 15 | half-life at 1 µM [3]: 1.4 ± 0.02 min | half-life at 1 µM [4]: 1.4 ± 0.02 min | TSA ΔTm (change of CA crosslinked hexamer melting temperature vs DMSO) [5]: 6.6 ± 0.2 °C | EC50 (HIV-1NL4-3): 2.7 ± 0.2 µM

Cc1[nH]c2ccccc2c1CC(=O)N[C@@H](Cc1ccccc1)C(=O)N(C)c1ccccc1 [PF74, reference compound]
half-life (t1/2) in mouse liver microsomes (MLMs) [6]: less than 1 min | TSA ΔTm (change of CA crosslinked hexamer melting temperature vs DMSO) [5]: 6.9 °C and 6.9 ± 0.5 °C | half-life (t1/2) in human liver microsomes (HLMs) [7]: less than 1 min | EC50 (HIV-1NL4-3): 0.7 ± 0.07 µM

O=C(Cc1c[nH]c2ccccc12)N[C@@H](Cc1ccccc1)C(=O)N1CCc2ccccc21 [Compound 2]
CC50 at 72 h [1]: > 100 µM | TSA ΔTm (change of CA crosslinked hexamer melting temperature vs DMSO) [5]: −1.0 °C | EC50 (HIV-1NL4-3): > 20 µM

Cc1[nH]c2ccccc2c1CC(=O)N[C@@H](Cc1ccccc1)c1nccn1-c1ccc(-c2nnn[nH]2)cc1 [Compound 22]
CC50 at 72 h [1]: > 50 µM | half-life at 1 µM [3]: 0.9 ± 0.01 min | half-life at 1 µM [4]: 1.3 ± 0.01 min | TSA ΔTm (change of CA crosslinked hexamer melting temperature vs DMSO) [5]: −0.3 ± 0.1 °C | EC50 (HIV-1NL4-3): > 20 µM | EC50 (concentration of compound inhibiting HIV-1 replication by 50%) (HIV-1NL4-3): no antiviral activity

O=C(Cn1cccn1)N[C@H](Cc1ccccc1)c1ncccc1-c1ccccc1 [Compound 6]
CC50 at 72 h [1]: > 50 µM | TSA ΔTm (change of CA crosslinked hexamer melting temperature vs DMSO) [5]: 0.3 ± 0.1 °C | EC50 (HIV-1NL4-3): > 15 µM

CCn1cc(CC(=O)N[C@@H](Cc2ccccc2)c2ncccc2-c2ccc(Br)cc2)c2ccccc21 [Compound 19]
CC50 at 72 h [1]: 41 ± 2 µM | TSA ΔTm (change of CA crosslinked hexamer melting temperature vs DMSO) [5]: 6.3 ± 0.1 °C | EC50 (HIV-1NL4-3): 3.2 ± 0.3 µM
